Source: BindingDB's records for PubMed 35315650 (Korea Research Institute of Chemical Technology, 2022)

Assay: Agonist activity at STING in human wild-type THP1-Dual cells co-expressing ISRE reporter assessed as IRF-mediated immune response incubated for 24 hrs by QUANTI Luc based microplate reader method

SMILES | EC50 [µM]
CCn1nc(C)cc1C(=O)NCCCCn1c(NC(=O)c2cc(C)nn2CC)nc2cc(C(N)=O)ccc21 | 9.12
Cn1cc(C(=O)Nc2nc3cc(C(N)=O)ccc3n2CCCCn2c(NC(=O)c3cn(C)nc3C(F)(F)F)nc3cc(C(N)=O)ccc32)c(C(F)(F)F)n1 | 17.6
CCn1nc(C)cc1C(=O)Nc1nc2cc(C(N)=O)ccc2n1CCCCNC(=O)c1ccccc1 | 28.6
CCn1nc(C)cc1C(=O)Nc1nc2cc(C(N)=O)cc(OCCCN)c2n1C | 29.8
CCn1nc(C)cc1C(=O)Nc1nc2cc(C(N)=O)ccc2n1CCCCNC(=O)c1cc(C)nn1C | 30.1
CCn1nc(C)cc1C(=O)NCCCn1c(NC(=O)c2cc(C)nn2CC)nc2cc(C(N)=O)ccc21 | 39.1
CCn1nc(C)cc1C(=O)Nc1nc2cc(C(N)=O)ccc2n1CCCNC(=O)OC(C)(C)C | 48.6
CCn1nc(C)cc1C(=O)Nc1nc2cc(C(N)=O)ccc2n1CCCCNC(=O)C(C)(C)C | 51.1

Now those with a lower EC50, led by results:

EC50 [µM] | SMILES
1.23 | CCn1nc(C)cc1C(=O)/N=c1\[nH]c2cc(C(N)=O)ccc2n1CCCCn1/c(=N/C(=O)c2cc(C)nn2CC)[nH]c2cc(C(N)=O)ccc21
0.804 | CCn1nc(C)cc1C(=O)Nc1nc2cc(C(N)=O)cc(OC)c2n1CCCCNC(=O)OC(C)(C)C
0.000354 | CCn1nc(C)cc1C(=O)Nc1nc2cc(C(N)=O)cc(OC)c2n1C/C=C/Cn1c(NC(=O)c2cc(C)nn2CC)nc2cc(C(N)=O)cc(OCCCNC(=O)OC(C)(C)C)c21
1.66 | CCn1nc(C)cc1C(=O)Nc1nc2cc(C(N)=O)cc(OCCCNC(=O)OC(C)(C)C)c2n1C
1.69 | CCn1nc(C)cc1C(=O)Nc1nc2cc(C(N)=O)ccc2n1CCCCCNC(=O)OC(C)(C)C
4e-06 | CCn1nc(C)cc1C(=O)NCCCOc1cc(C(N)=O)cc2nc(NC(=O)c3cc(C)nn3CC)n(C/C=C/Cn3c(NC(=O)c4cc(C)nn4CC)nc4cc(C(N)=O)cc(OC)c43)c12
4.6 | CCn1nc(C)cc1C(=O)Nc1nc2cc(C(N)=O)cc(OC)c2n1C/C=C/CNC(=O)OC(C)(C)C
6.22 | CCn1nc(C)cc1C(=O)NCCCOc1cc(C(N)=O)cc2nc(NC(=O)c3cc(C)nn3CC)n(C)c12
6.55 | CCn1nc(C)cc1C(=O)Nc1nc2cc(C(N)=O)ccc2n1CCCCNC(=O)OC(C)(C)C
0.00162 | CCn1nc(C)cc1C(=O)Nc1nc2cc(C(N)=O)cc(OC)c2n1C/C=C/Cn1c(NC(=O)c2cc(C)nn2CC)nc2cc(C(N)=O)cc(OCCCN)c21
